These results are taken from patent publication US5216015A, “Compounds having hypocholesterolemic properties” (priority 1991, dated 1993).

Where two headings read alike, the source gives them in different places.

In one assay the test system is sterol synthesis. As to conditions: et al., cited from earlier work.
The subject of assay [1] is HMG-CoA reductase. Description: HMGR Screen: inhibition of HMG-CoA reductase solubilized from rat liver microsomes. Format: biochemical. Here is the method:
(§1) The effectiveness of the compounds of this invention as hypocholesterolemic agents may be determined by the following pharmacologic tests which evaluate the HMG-CoA reductase inhibitory activity of said compounds. The HMGR Screen and Ex Vivo Fasted procedures are standard test procedures; the HMG-CoA reductase inhibitory results generally correlate with the HMG-CoA reductase inhibitory activity found in human patients.
Male rats were acclimated to an alternate 12 hours light-dark cycle for a period of 2-3 weeks. The animals, weighing 180-230 g, were fed ad libitum a rat chow containing 2% cholestyramine for 5 days prior to sacrifice at the mid-dark period. Liver microsomes were prepared and HMG-CoA reductase enzyme was solubilized from the microsomes by freeze-thaw manipulation in high ionic strength buffer. The enzyme preparation was stored at -80° C. in 300 μl portion samples. Prior to use, the enzyme was activated by warming at 37° C. for 30 minutes. A reaction mixture was prepared which consisted of, in a volume of 240 μl: 0.14M potassium phosphate buffer (pH 7.0); 0.18M KCl; 3.5 mM EDTA; 10 mM dithiothreitol; 0.1 mg/ml BSA; 30,000 cpm of [^14 C] HMG-CoA; 20 μM HMG-CoA, and 200 μg of activated enzyme with and without compounds of the present invention (in 10 μl DMSO). After 5 minutes incubation at 37° C. the reaction was initiated with 0.2 mM NADPH. The final assay volume was 300 μl. The reaction was then terminated with 100 μl of 1N HCl. After an additional incubation for 15 minutes at 37° C. to allow for complete lactonization of the product, the mixture was diluted with 3 ml distilled water. The diluted mixture was then poured over a 0.7×1.4 cm column containing 100-200 mesh Bio-Rex ion-exchange resin (chloride form of Bio-Rad) which was equilibrated with distilled water. With this resin the unreacted [^14 C] HMG-CoA was adsorbed and the product [^14 C] mevalonolactone was eluted (80% recovery) directly into scintillation vials. After the addition of 10 ml of Aquasol, radioactivities of the samples were measured in a scintillation counter. Results are reported as % inhibition of the enzyme in the presence of a given concentration of a compound of the present invention as compared with the activity of the enzyme in the absence of said compound, i.e., in the absence of inhibitor.

In assay [2] the test system is HMG-CoA reductase. As to conditions: Brown, et al., J. Biol. Chem. 249 (22), 7306 (1974); cited from earlier work.
The test system of a further assay is cholesterol synthesis. Put plainly: Ex-Vivo Fasted: inhibition of cholesterol synthesis in liver slices after oral dosing of fasted rats. To be noted: Rattus norvegicus, 1 h, p.o. (Na+ salt), livers removed after one hour.
From the text: as §1
Rats of 170-210 g were maintained on a low cholesterol diet for one week prior to use. Compounds of the present invention (identified in the table below) were given orally in 0.5% methocel to fasted (fasted for 16 hours) rats. After one hour the rats were decapitated and their livers removed and transferred to chilled oxygenated Kreb's-Ringer-bicarbonate buffer (pH 7.4). The livers were then chopped into 0.5 mm slices using a McIlwain tissue chopper, and were suspended in the same buffer. Aliquots of the suspension containing 100 mg tissue were pipetted to culture tubes which contained [^14 C] sodium octanoate (2 μCi, 3 mM). The tubes were gassed with 95% O2 /CO2, capped and incubated at 37° C. in a shaking water bath at 150 oscillation/min. for two hours. The final assay volume was 1.0 ml. […] After visualization with iodine the cholesterol spots were cut and counted with liquid scintillation fluid. […]

The mark [3] stands for this setting: Schroepfer, J. Biol. Chem. 252 (24), 8975 (1977).
The mark [4] stands for this setting: Kandutsch, J. Biol. Chem. 248 (24), 8408 (1974).

As a reminder, the inhibition is the percentage by which the read-out fell short of the control.

As to `CO[C@H]1CC[C@@]2(C)[C@@H](CC=C3[C@@H]2CC[C@]2(C)[C@@H]([C@H](C)CCCC(C)C)C[C@H](O)[C@@]32C)C1` [3β-methoxy-14α-methyl-5α-cholest-7-en-15α-ol], in the assay on sterol synthesis (setting [3]), the “inhibition of sterol synthesis” value was “potent inhibitors of sterol synthesis”. With `CCC(C)(C)C(=O)O[C@H]1C[C@H]2[C@@H]([C@H](OC(C)=O)C[C@@H]3C[C@H](O)CC[C@@]32C)[C@@H]2CC[C@H]([C@H](C)CC3CC(O)CC(=O)O3)[C@@]12C` (stereo partly drawn) [Example 3, 7α-acetoxy-12α-(2,2-dimethyl)butyryloxy-3α-hydroxy-17β-[3-(4(R)-hydroxy-3,4,5,6-tetrahydro-2H-pyran-2-on-6(R)-yl)-2(R)-2-propyl]-5β-androstane and 7α-acetoxy-12α-(2,2-dimethyl)butyryloxy-3α-hydroxy-17β-[3-(4(S)-hydroxy-3,4,5,6-tetrahydro-2H-pyran-2-on-6(S)-yl)-2(R)-2-propyl]-5β-androstane], the “HMGR Screen % Inhibition” value is 23% with HMG-CoA reductase [1] (Lactone Form, at 30 μM) and 21% with HMG-CoA reductase [1] (Ring-opened/Sodium Salt, at 300 nM). As to `CC(C)CCC[C@@H](C)[C@H]1CC[C@H]2[C@@H]3[C@@H](O)C=C4C[C@@H](O)CC[C@]4(C)[C@H]3CC[C@]12C` [7β-hydroxycholesterol], in the assay with sterol synthesis (setting [4]), the “inhibition of sterol synthesis” value is listed as “inhibit sterol synthesis”. `CC(C)CCC[C@@H](C)[C@H]1C[C@H](O)C2=C3CC[C@H]4C[C@@H](O)CC[C@]4(C)[C@H]3CC[C@@]21C` [5α-cholest-8(14)-en-3β,15α-diol]: in the assay on sterol synthesis (setting [3]), the “inhibition of sterol synthesis” value is recorded as “potent inhibitors of sterol synthesis”. `CC(C)CCC[C@@H](C)[C@H]1CC[C@H]2[C@@H]3C(=O)C=C4C[C@@H](O)CC[C@]4(C)[C@H]3CC[C@]12C` [7-ketocholesterol]: in the assay on sterol synthesis (setting [4]), the “inhibition of sterol synthesis” value was “inhibit sterol synthesis”. Further, in the assay on HMG-CoA reductase [2], the “suppression of HMG-CoA reductase activity” value is listed as “suppress HMG-CoA reductase activity”. As for `CCC(C)(C)C(=O)O[C@H]1C[C@H]2[C@@H](CC[C@@H]3C[C@H](O)CC[C@@]32C)[C@@H]2CC[C@H]([C@H](C)CC3CC(O)CC(=O)O3)[C@@]12C` (stereo partly drawn) [Example 2, 12α-(2,2-dimethyl)butyryloxy-3α-hydroxy-17β-[3-(4(R)-hydroxy-3,4,5,6-tetrahydro-2H-pyran-2-on-6(R)-yl)-2(R)-2-propyl]-5β-androstane and 12α-(2,2-dimethyl)butyryloxy-3α-hydroxy-17β-[3-(4(S)-hydroxy-3,4,5,6-tetrahydro-2H-pyran-2-on-6(S)-yl)-2(R)-2-propyl]-5β-androstane], the “HMGR Screen % Inhibition” value worked out at 33% in the assay on HMG-CoA reductase [1] (Lactone Form, at 30 μM) and 50% in the assay on HMG-CoA reductase [1] (Ring-opened/Sodium Salt, at 352 nM). Regarding `CCC(C)(C)C(=O)O[C@H]1C[C@H]2[C@@H](CC[C@@H]3C[C@H](O)CC[C@@]32C)[C@@H]2CCC=C(/C=C/C3CC(O)CC(=O)O3)[C@@]12C` (stereo partly drawn) [Example 1, 12α-(2,2-dimethyl)butyryloxy-3α-hydroxy-17a-[E-2-(4(R)-hydroxy-3,4,5,6-tetrahydro-2H-pyran-2-on-6(S)-yl)ethenyl]-D-homo-5β-androst-17-ene and 12α-(2,2-dimethyl)butyryloxy-3α-hydroxy-17a-[E-2-(4(S)-hydroxy-3,4,5,6-tetrahydro-2H-pyran-2-on-6(R)-yl)ethenyl]-D-homo-5β-androst-17-ene], the “HMGR Screen % Inhibition” value in the assay on HMG-CoA reductase [1] (Lactone Form, at 5.9 μM) came out at 50%; with HMG-CoA reductase [1] (Ring-opened/Sodium Salt, at 228 nM), 50%. Turning to `CO[C@H]1CC[C@@]2(C)[C@@H](CC=C3[C@@H]2CC[C@]2(C)[C@@H]([C@H](C)CCCC(C)C)C[C@@H](O)[C@@]32C)C1` [3β-methoxy-14α-methyl-5α-cholest-7-en-15β-ol], the “inhibition of sterol synthesis” value in the assay on sterol synthesis (setting [3]) was “potent inhibitors of sterol synthesis”. In the case of `CC(C)CCC[C@@H](C)[C@H]1CC(=O)[C@@]2(C)C3=CC[C@H]4C[C@@H](O)CC[C@]4(C)[C@H]3CC[C@]12C` [14α-methyl-5α-cholest-7-en-3β-ol-15-one], in the assay on sterol synthesis (setting [3]), the “inhibition of sterol synthesis” value is recorded as “potent inhibitors of sterol synthesis”. As to `CC(C)CCC[C@@H](C)[C@H]1CC(O)C2=C3C(O)C[C@H]4C[C@@H](O)CC[C@]4(C)[C@H]3CC[C@@]21C` (stereo partly drawn) [5α-cholest-8(14)-en-3β,7.xi.,15.xi.-triol], the “inhibition of sterol synthesis” value in the assay on sterol synthesis (setting [3]) was “potent inhibitors of sterol synthesis”. For `CCC(C)(C)C(=O)O[C@H]1C[C@H]2C(=C3CC[C@H]([C@H](C)CC4CC(O)CC(=O)O4)[C@]31C)CC[C@@H]1C[C@H](O)CC[C@@]12C` (stereo partly drawn) [Example 4, 12α-(2,2-dimethyl)butyryloxy-3α-hydroxy-17β-[3-(4(R)-hydroxy-3,4,5,6-tetrahydro-2H-pyran-2-on-6(R)-yl)-2(R)-2-propyl]-5β-androst-8(14)ene and 12α-(2,2-dimethyl)butyryloxy-3α-hydroxy-17β-[3-(4(S)-hydroxy-3,4,5,6-tetrahydro-2H-pyran-2-on-6(S)-yl)-2(R)-2-propyl]-5β-androst-8(14)-ene], the “HMGR Screen % Inhibition” value in the assay on HMG-CoA reductase [1] (Lactone Form, at 3 μM) is recorded as 19%; with HMG-CoA reductase [1] (Ring-opened/Sodium Salt, at 119 nM), 50%. For `CCC(C)(C)C(=O)O[C@H]1C[C@H]2C(=C3CC[C@H](CC[C@@H]4C[C@@H](O)CC(=O)O4)[C@]31C)CC[C@@H]1C[C@H](O)CC[C@@]12C` [Example 5, 12α-(2,2-dimethyl)butyryloxy-3α-hydroxy-17β-[2-(4(R)-hydroxy-3,4,5,6-tetrahydro-2H-pyran-2-on-6(R)-yl)-ethyl]-5β-androst-8(14)-ene], the “HMGR Screen % Inhibition” value is listed as 50% with HMG-CoA reductase [1] (Lactone Form, at 1.6 μM) and 50% with HMG-CoA reductase [1] (Ring-opened/Sodium Salt, at 16.9 nM). Besides, the inhibition at 3 mg/kg with cholesterol synthesis was 47%. In the case of `CC(C)CCC[C@@H](C)[C@H]1C[C@@H](O)[C@@H]2C3=CC[C@H]4C[C@@H](O)CC[C@]4(C)[C@H]3CC[C@]12C` [5α,14β-cholest-7-en-3β,15β-diol], the “inhibition of sterol synthesis” value in the assay with sterol synthesis (setting [3]) is recorded as “potent inhibitors of sterol synthesis”.

Regarding `CC(C)CCC[C@@H](C)[C@H]1C[C@@H](O)[C@@]2(C)C3=CC[C@H]4C[C@@H](O)CC[C@]4(C)[C@H]3CC[C@]12C` [14α-methyl-5α-cholest-7-en-3β,15β-diol], in the assay with sterol synthesis (setting [3]), the “inhibition of sterol synthesis” value is on record as “potent inhibitors of sterol synthesis”. As for `CC(C)CCC[C@@H](C)[C@H]1C[C@H](O)[C@@]2(C)C3=CC[C@H]4C[C@@H](O)CC[C@]4(C)[C@H]3CC[C@]12C` [14α-methyl-5α-cholest-7-en-3β,15α-diol], in the assay on sterol synthesis (setting [3]), the “inhibition of sterol synthesis” value is “potent inhibitors of sterol synthesis”.

Consider `CC(C)CCC[C@@H](C)[C@H]1CC[C@H]2[C@@H]3[C@H](O)C=C4C[C@@H](O)CC[C@]4(C)[C@H]3CC[C@]12C` [7α-hydroxycholesterol], for which the “inhibition of sterol synthesis” value in the assay on sterol synthesis (setting [4]) is “inhibit sterol synthesis”. Consider `CC(C)CCC[C@@H](C)[C@H]1C[C@@H](O)C2=C3CC[C@H]4C[C@@H](O)CC[C@]4(C)[C@H]3CC[C@@]21C` [5α-cholest-8(14)-en-3β,15β-diol], for which the “inhibition of sterol synthesis” value in the assay on sterol synthesis (setting [3]) is on record as “potent inhibitors of sterol synthesis”.

`CC(C)CCC[C@@H](C)[C@H]1C[C@H](O)[C@@H]2C3=CC[C@H]4C[C@@H](O)CC[C@]4(C)[C@H]3CC[C@]12C` [5α,14β-cholest-7-en-3β,15α-diol]: the “inhibition of sterol synthesis” value with sterol synthesis (setting [3]) was “potent inhibitors of sterol synthesis”.
